The text below walks through data of patent US9149038B2, “4-amino-6-(heterocyclic)picolinates and 6-amino-2-(heterocyclic)pyrimidine-4-carboxylates and their use as herbicides” (Dow AgroSciences LLC, priority 2013, dated 2015).

Molecules are shown by their SMILES. Read-outs that look alike come from different tables or passages of the source.

Data set [1] concerns Key Broadleaf and Grass Weed as well as Crop Species. Briefly: Post-Emergent Test I: postemergent herbicidal activity, visual phytotoxicity rating 10 days after treatment (Table 5). Particulars: 4 kg ai/ha; for Visual Growth Reduction (%) 10 Days After Application ECHCG: barnyardgrass (Echinochloa crus-galli); for pest or weed control at 4000 g/ha: post-emergence, 240 h, 10 days after application. Type of data set: in vivo. Here is the method:
Herbicidal evaluations were made visually on a scale of 0 to 100 where 0 represents no activity and 100 represents complete plant death. Post-Emergent Test I: Seeds of test species were obtained from commercial suppliers and planted into a 5″-round pot containing soil-less media mix (Metro-Mix 360®, Sun Gro Horticulture). Postemergence treatments were planted 8-12 days (d) prior to application and cultured in a greenhouse equipped with supplemental light sources to provide a 16 h photoperiod at 24-29° C. All pots were surface irrigated. Approximately 10 milligrams (mg) of each compound were dissolved in 1.3 mL acetone-DMSO (97:3, volume per volume (v/v)) and diluted with 4.1 mL water-isopropanol-crop oil concentrate (78:20:2, v/v/v) containing 0.02% Triton X-155. Treatments were serial diluted with the above formulation solvent to provide 1.85, 0.926, 0.462 and 0.231 milligrams per milliliter (mg/mL) of test compound delivered in 2.7 mL/pot (roughly equivalent to 4.0, 2.0, 1.0, and 0.5 kg/ha, respectively). Formulated compounds were applied using a DeVilbiss® compressed air sprayer at 2-4 pounds per square inch (psi). Following treatment, pots were returned to the greenhouse for the duration of the experiment. All pots were sub-irrigated as needed to provide optimum growing conditions. All pots were fertilized one time per week by subirrigating with Peters Peat-Lite Special® fertilizer (20-10-20). Phytotoxicity ratings were obtained 10 days after treatment postemergence applications. All evaluations were made visually on a scale of 0 to 100 where 0 represents no activity and 100 represents complete plant death and are presented as indicated in Table 4.

Where [2] appears, read: giant foxtail (Setaria faberi), read-out: Visual Growth Reduction (%) 10 Days After Application SETFA.
Setting [3] is: ivyleaf morningglory (Ipomoea hederecea), read-out: Visual Growth Reduction (%) 10 Days After Application IPOHE.
The mark [4] stands for this setting: sunflower (Helianthus annuus), read-out: Visual Growth Reduction (%) 10 Days After Application HELAN.
Where [5] appears, read: wild oats (Avena fatua), read-out: Visual Growth Reduction (%) 10 Days After Application AVEFA.

For `C=Cc1c(C(=O)OC)nc(-c2ccc3c(c2)OC(F)(F)O3)c(F)c1N` [Compound 29], the melting point is 112 to 114 °C.

For `COC(=O)c1nc(-c2cc(F)c3c(c2)OC(F)(F)O3)cc(N)c1Cl` [Compound 43], the melting point was in the range of 176 to 177 °C.

As to `COC(=O)c1nc(-c2cc3c(cc2F)OC(F)(F)O3)c(C)c(N)c1Cl` [Compound 50], the melting point was 162 to 165 °C.

`COC(=O)c1nc(-c2ccc3c(c2F)OC(F)(F)O3)c(C)c(N)c1Cl` [Compound 53] registered a melting point of 153.5 to 155 °C.

Regarding `COc1cc2c(cc1-c1cc(N)c(Cl)c(C(=O)O)n1)OC(F)(F)O2` [Compound 39], the melting point lay within 165 to 166 °C.

As to `Nc1cc(-c2cccc3c2OC(F)(F)O3)nc(C(=O)O)c1Cl` [Compound 85], the melting point turned out to be 170 °C.

Consider `Cc1c(-c2cc3c(cc2F)OC(F)(F)O3)nc(C(=O)O)c(Cl)c1N` [Compound 51], for which the “Visual Growth Reduction (%) 10 Days After Application ECHCG” value in data set [1] is listed as “G (0-29)”. The pest or weed control at 4000 g/ha is 0 to 29% in data set [1] (setting [2]), 0 to 29% in data set [1] (setting [3]), 60 to 74% in data set [1] (setting [4]) and 0 to 29% in data set [1] (setting [5]).

Take `COC(=O)c1nc(-c2ccc3c(c2F)OC(F)(F)O3)nc(N)c1OC` [Compound 65]: the melting point fell in the range of 109 to 111 °C.

Turning to `Cc1c(-c2ccc3c(c2F)OC(F)(F)O3)nc(C(=O)O)c(Cl)c1N` [Compound 54], the “Visual Growth Reduction (%) 10 Days After Application ECHCG” value in data set [1] is “G (0-29)”. In addition, the pest or weed control at 4000 g/ha in data set [1] (setting [2]) lay within 0 to 29%; in data set [1] (setting [3]), 0 to 29%; in data set [1] (setting [4]), 60 to 74%; in data set [1] (setting [5]) it was 0 to 29%.
